# Assay results published in US9725449B2, “Tricyclic compounds as anticancer agents” (BRISTOL-MYERS SQUIBB COMPANY, priority 2015, dated 2017).
# Target: BRD4 (Homo sapiens, UniProt O60885)
# Test: Time resolved fluorescence resonance energy transfer (TR-FRET) binding assay, bromodomain BRD4
# Conditions: one of the FRET assays described; read-out: FRET BRD4 IC50
row,SMILES,IC50 [nM]
1,"[2H]C([2H])([2H])c1nnn(C)c1-c1cnc2c3c(OCC4CC4)ncc(S(C)(=O)=O)c3n([C@H](c3ccc(F)cc3)C3CCOCC3)c2c1 [Example 78, 13-(Cyclopropylmethoxy)-8-[(S)-(4-fluorophenyl)(oxan-4-yl)methyl]-10-methanesulfonyl-5-[4-(^2H3)methyl-1-methyl-1H-1,2,3-triazol-5-yl]-3,8,12-triazatricyclo[7.4.0.0^2,^7]trideca-1(13),2(7),3,5,9,11-hexaene]",< 1
2,"[2H]C([2H])([2H])c1nnn(C)c1-c1cnc2c3c(OC(C)C)ncc(S(C)(=O)=O)c3n([C@H](c3ccc(F)cc3)C3CCOCC3)c2c1 [Example 79, 8-[(S)-(4-Fluorophenyl)(oxan-4-yl)methyl]-10-methanesulfonyl-5-[4-(^2H3)methyl-1-methyl-1H-1,2,3-triazol-5-yl]-13-(propan-2-yloxy)-3,8,12-triazatricyclo[7.4.0.0^2,^7]trideca-1(13),2(7),3,5,9,11-hexaene]",< 1
3,"[2H]C([2H])([2H])c1nnn(C)c1-c1cnc2c3c(OC(C)C)ncc(S(C)(=O)=O)c3n([C@H](c3ccccc3F)C3CCOCC3)c2c1 [Example 80, 8-[(S)-(2-Fluorophenyl)(oxan-4-yl)methyl]-10-methanesulfonyl-5-[4-(^2H3)methyl-1-methyl-1H-1,2,3-triazol-5-yl]-13-(propan-2-yloxy)-3,8,12-triazatricyclo[7.4.0.0^2,^7]trideca-1(13),2(7),3,5,9,11-hexaene]",< 1
4,"[2H]C([2H])([2H])c1nnn(C)c1-c1cnc2c3c(OC)ncc(S(C)(=O)=O)c3n([C@H](c3ccccc3)C3CCC(F)(F)CC3)c2c1 [Example 81, 8-[(S)-(4,4-Difluorocyclohexyl)(phenyl)methyl]-10-methanesulfonyl-13-methoxy-5-[4-(^2H3)methyl-1-methyl-1H-1,2,3-triazol-5-yl]-3,8,12-triazatricyclo[7.4.0.0^2,^7]trideca-1(13),2(7),3,5,9,11-hexaene]",< 1
5,"[2H]C([2H])([2H])c1nnn(C)c1-c1cnc2c3c(OC)ncc(S(C)(=O)=O)c3n([C@@H](c3ccccc3)C3CCC(F)(F)CC3)c2c1 [Example 82, 8-[(R)-(4,4-Difluorocyclohexyl)(phenyl)methyl]-10-methanesulfonyl-13-methoxy-5-[4-(^2H3)methyl-1-methyl-1H-1,2,3-triazol-5-yl]-3,8,12-triazatricyclo[7.4.0.0^2,^7]trideca-1(13),2(7),3,5,9,11-hexaene]",< 1500
6,"[2H]C([2H])([2H])c1nnn(C)c1-c1cnc2c3c(OCCCF)ncc(S(C)(=O)=O)c3n([C@H](c3ccccc3F)C3CCOCC3)c2c1 [Example 85, 8-[(S)-(2-Fluorophenyl)(oxan-4-yl)methyl]-13-(3-fluoropropoxy)-10-methanesulfonyl-5-[4-(^2H3)methyl-1-methyl-1H-1,2,3-triazol-5-yl]-3,8,12-triazatricyclo[7.4.0.0^2,^7]trideca-1(13),2(7),3,5,9,11-hexaene]",< 1
7,"[2H]C([2H])([2H])c1nnn(C)c1-c1cnc2c3c(O)ncc(S(C)(=O)=O)c3n([C@H](c3ccccc3)C3CCC(F)(F)CC3)c2c1 [Example 92, 8-[(S)-(4,4-Difluorocyclohexyl)(phenyl)methyl]-10-methanesulfonyl-5-[4-(^2H3)methyl-1-methyl-1H-1,2,3-triazol-5-yl]-3,8,12-triazatricyclo[7.4.0.0^2,^7]trideca-1(13),2(7),3,5,9,11-hexaen-13-ol]",< 10
8,"Cc1nnn(C)c1-c1cnc2c3c(O)ncc(S(C)(=O)=O)c3n([C@H](c3ccccc3)C3CCOCC3)c2c1 [Example 93, 5-(Dimethyl-1H-1,2,3-triazol-5-yl)-10-methanesulfonyl-8-[(S)-oxan-4-yl(phenyl)methyl]-3,8,12-triazatricyclo[7.4.0.0^2,^7]trideca-1(13),2(7),3,5,9,11-hexaen-13-ol]",< 10
9,"[2H]C([2H])([2H])c1nnn(C)c1-c1cnc2c3c(OCC4CC4)ncc(S(C)(=O)=O)c3n([C@H](c3ccccc3)C3CCC(F)(F)CC3)c2c1 [Example 94, 13-(Cyclopropylmethoxy)-8-[(S)-(4,4-difluorocyclohexyl)(phenyl)methyl]-10-methanesulfonyl-5-[4-(^2H3)methyl-1-methyl-1H-1,2,3-triazol-5-yl]-3,8,12-triazatricyclo[7.4.0.0^2,^7]trideca-1(13),2(7),3,5,9,11-hexaene]",< 10
10,"[2H]C([2H])([2H])c1nnn(C)c1-c1cnc2c3c(OC)ncc(S(C)(=O)=O)c3n([C@H](c3ccc(F)cc3)C3CCC(F)(F)CC3)c2c1 [Example 95, 8-[(S)-(4,4-Difluorocyclohexyl)(4-fluorophenyl)methyl]-10-methanesulfonyl-13-methoxy-5-[4-(^2H3)methyl-1-methyl-1H-1,2,3-triazol-5-yl]-3,8,12-triazatricyclo[7.4.0.0^2,^7]trideca-1(13),2(7),3,5,9,11-hexaene]",< 10
11,"Cc1nnn(C)c1-c1cnc2c3c(NS(=O)(=O)C4CC4)ncc(S(C)(=O)=O)c3n([C@H](c3ccccc3)C3CCOCC3)c2c1 [Example 97, N-[5-(Dimethyl-1H-1,2,3-triazol-5-yl)-10-methanesulfonyl-8-[(S)-oxan-4-yl(phenyl)methyl]-3,8,12-triazatricyclo[7.4.0.0^2,^7]trideca-1(13),2(7),3,5,9,11-hexaen-13-yl]cyclopropanesulfonamide]",< 1
12,"Cc1noc(C)c1-c1cnc2c3c(NS(=O)(=O)C4CC4)ncc(S(C)(=O)=O)c3n([C@H](c3ccccc3)C3CCOCC3)c2c1 [Example 98, N-[5-(Dimethyl-1,2-oxazol-4-yl)-10-methanesulfonyl-8-[(S)-oxan-4-yl(phenyl)methyl]-3,8,12-triazatricyclo[7.4.0.0^2,^7]trideca-1(13),2(7),3,5,9,11-hexaen-13-yl]cyclopropanesulfonamide]",< 10
13,"CCS(=O)(=O)Nc1ncc(S(C)(=O)=O)c2c1c1ncc(-c3c(C)noc3C)cc1n2[C@H](c1ccccc1)C1CCOCC1 [Example 99, N-[5-(Dimethyl-1,2-oxazol-4-yl)-10-methanesulfonyl-8-[(S)-oxan-4-yl(phenyl)methyl]-3,8,12-triazatricyclo[7.4.0.0^2,^7]trideca-1(13),2(7),3,5,9,11-hexaen-13-yl]ethane-1-sulfonamide]",< 1
14,"Cc1noc(C)c1-c1cnc2c3c(NS(=O)(=O)C(C)C)ncc(S(C)(=O)=O)c3n([C@H](c3ccccc3)C3CCOCC3)c2c1 [Example 100, N-[5-(Dimethyl-1,2-oxazol-4-yl)-10-methanesulfonyl-8-[(S)-oxan-4-yl(phenyl)methyl]-3,8,12-triazatricyclo[7.4.0.0^2,^7]trideca-1(13),2(7),3,5,9,11-hexaen-13-yl]propane-2-sulfonamide]",< 10
15,"Cc1nnn(C)c1-c1cnc2c3c(OCC4CC4)ncc(S(C)(=O)=O)c3n([C@H](c3ccccc3)C3CCOCC3)c2c1 [Example 101, 13-(Cyclopropylmethoxy)-5-(dimethyl-1H-1,2,3-triazol-5-yl)-10-methanesulfonyl-8-[(S)-oxan-4-yl(phenyl)methyl]-3,8,12-triazatricyclo[7.4.0.0^2,^7]trideca-1(13),2(7),3,5,9,11-hexaene]",< 10
16,"Cc1noc(C)c1-c1cnc2c3c(NS(C)(=O)=O)ncc(S(C)(=O)=O)c3n([C@H](c3ccccc3)C3CCOCC3)c2c1 [Example 102, N-[5-(Dimethyl-1,2-oxazol-4-yl)-10-methanesulfonyl-8-[(S)-oxan-4-yl(phenyl)methyl]-3,8,12-triazatricyclo[7.4.0.0^2,^7]trideca-1(13),2(7),3,5,9,11-hexaen-13-yl]methanesulfonamide]",< 10
17,"Cc1noc(C)c1-c1cnc2c3c(OCC4CC4)ncc(S(C)(=O)=O)c3n([C@H](c3ccccc3)C3CCOCC3)c2c1 [Example 103, 13-(Cyclopropylmethoxy)-5-(dimethyl-1,2-oxazol-4-yl)-10-methanesulfonyl-8-[(S)-oxan-4-yl(phenyl)methyl]-3,8,12-triazatricyclo[7.4.0.0^2,^7]trideca-1(13),2(7),3,5,9,11-hexaene]",< 10
18,"Cc1nnn(C)c1-c1cnc2c3c(NS(=O)(=O)CC4CC4)ncc(S(C)(=O)=O)c3n([C@H](c3ccccc3)C3CCOCC3)c2c1 [Example 104, 1-Cyclopropyl-N-[5-(dimethyl-1H-1,2,3-triazol-5-yl)-10-methanesulfonyl-8-[(S)-oxan-4-yl(phenyl)methyl]-3,8,12-triazatricyclo[7.4.0.0^2,^7]trideca-1(13),2(7),3,5,9,11-hexaen-13-yl]methanesulfonamide]",< 10
19,"Cc1nnn(C)c1-c1cnc2c3c(NS(C)(=O)=O)ncc(S(C)(=O)=O)c3n([C@H](c3ccccc3)C3CCOCC3)c2c1 [Example 105, N-[5-(Dimethyl-1H-1,2,3-triazol-5-yl)-10-methanesulfonyl-8-[(S)-oxan-4-yl(phenyl)methyl]-3,8,12-triazatricyclo[7.4.0.0^2,^7]trideca-1(13),2(7),3,5,9,11-hexaen-13-yl]methanesulfonamide]",< 10
20,"COc1ncc(S(=O)(=O)CC2(O)COC2)c2c1c1ncc(-c3c(C)nnn3C)cc1n2[C@H](c1ccccc1)C1CCOCC1 [Example 106, 3-({[5-(Dimethyl-1H-1,2,3-triazol-5-yl)-13-methoxy-8-[(S)-oxan-4-yl(phenyl)methyl]-3,8,12-triazatricyclo[7.4.0.0^2,^7]trideca-1(13),2(7),3,5,9,11-hexaen-10-yl]sulfonyl}methyl)oxetan-3-ol]",< 10
21,"[2H]C([2H])([2H])c1nnn(C)c1-c1cnc2c3c(OCC(C)C)ncc(S(C)(=O)=O)c3n([C@H](c3ccccc3)C3CCOCC3)c2c1 [Example 108, 10-Methanesulfonyl-5-[4-(^2H3)methyl-1-methyl-1H-1,2,3-triazol-5-yl]-13-(2-methylpropoxy)-8-[(S)-oxan-4-yl(phenyl)methyl]-3,8,12-triazatricyclo[7.4.0.0^2,^7]trideca-1(13),2(7),3,5,9,11-hexaene]",< 10
22,"[2H]C([2H])([2H])c1nnn(C)c1-c1cnc2c3c(OCC4CCCO4)ncc(S(C)(=O)=O)c3n([C@H](c3ccccc3)C3CCOCC3)c2c1 (stereo partly drawn) [Example 109, 10-Methanesulfonyl-5-[4-(^2H3)methyl-1-methyl-1H-1,2,3-triazol-5-yl]-8-[(S)-oxan-4-yl(phenyl)methyl]-13-[(2R)-oxolan-2-ylmethoxy]-3,8,12-triazatricyclo[7.4.0.0^2,^7]trideca-1(13),2(7),3,5,9,11-hexaene]",< 10
